# Counter-ions that a name gives are not always drawn. Like-named read-outs stand apart in the source and are kept apart here.
# Assays:
# [1] = system: AR 1.0 cells; assay: Potentiation index for doxorubicin (doxorubicin titration with fixed concentration of compound); type: cell-based, mouse; conditions: RMA at 1 μM; doxorubicin, four days
# Procedure: The EMT6 mouse mammary carcinoma cell line and the MDR resistant sublime AR 1.0 were cultured in RPMI 1640 medium containing 10% foetal calf serum and 2 mM glutamine at 37° C. in 5% CO2. Cells were passaged between 1 in 200 and 1 in 2000 in the case of the parental cell line and between 1 in 20 and 1 in 200 in the case of the MDR resistant subline, after trypsinisation (0.25% trypsin, 0.2 gl^-1, EDTA).
# Cells were cultured for four days with a titration of doxorubicin (0.01 nm-50 μM) in the presence of a fixed concentration of each compound. Proliferation was quantified as described by Skehan et. al, loc cit. The IC50 (concentration required to reduce proliferation to 50% of the untreated controls) for doxorubicin alone and with each compound were derived and used to calculate the potentiation index (PI): [formula]
# [2] = system: AR 1.0 cells; assay: Compound toxicity (proliferation, sulphorhodamine B); type: cell-based; conditions: Mus musculus, 96 h; compound alone; AR 1.0 cells; four day incubation; read-out: Compound toxicity (IC50)
# [3] = system: AR 1.0 cells; assay: Drug accumulation assay (tritiated daunorubicin); type: cell-based; conditions: Mus musculus; for IC50: daunorubicin 2 μM, 1 hr at 37° C., read-out: IC50 accumulation; for Emax: 1 h, read-out: Max accumulation
# Procedure: AR 1.0 cells were seeded into 96 well opaque culture plates (Canberra Packard). The assay medium contained a mixture of tritiated Daunorubicin (DNR), a cytotoxic agent, and unlabelled DNR (0.3 μCi/ml; 2 μM). Compounds of formula I were serially diluted in assay medium over a range of concentrations from 5 nM to 100 μM. The cells were incubated at 37° C. for 1 hr before washing and determination of cell associated radioactivity. Results were expressed as % maximum accumulation where 100% accumulation is that observed in the presence of the known RMA verapamil at 100 μM. Where possible an IC50 was determined.
# [4] = system: AR 1.0 cells; assay: Potentiation of doxorubicin toxicity (fixed doxorubicin 0.86 μM, proliferation, sulphorhodamine B); type: cell-based, mouse; conditions: for IC50: with doxorubicin 0.86 μM, four day incubation, 5760 min, read-out: Toxicity with cytotoxic agent (IC50)
# Source text: Compounds of formula (I) were examined for their ability to potentiate the toxicity of doxorubicin in AR 1.0 cells.
# [5] = % maximum accumulation, 100% = verapamil at 100 μM, compound 5 nM to 100 μM
Compound,IC50 [2] [µM],IC50 [3] [µM],"Emax [3, 5] [%]",IC50 [4] [µM],also measured
"COc1cc2c(cc1OC)CN(CCc1ccc(NC(=O)c3ccc(/C=c4\[nH]c(=O)/c(=C/c5ccccc5)n(C)c4=O)cc3)cc1)CC2 [Compound 9006, N-(4-(2-(6,7-Dimethoxy-1,2,3,4-tetrahydro-2-isoquinolyl)ethyl)phenyl)-4-((3Z,6Z)-6-benzylidene-1-methyl-2,5-dioxo-3-piperazinylidene)methylbenzamide]",2,0.4,–,–,Potentiation index [1]: 1000
"CN1CCN(CCNC(=O)c2ccc(/C=c3\[nH]c(=O)/c(=C/c4ccccc4)n(C)c3=O)cc2)CC1 [Compound 9007, N-(2-(4-Methyl-1-piperazinyl)ethyl)-4-((3Z,6Z)-6-benzylidene-1-methyl-2,5-dioxo-3-piperazinylidene)methylbenzamide]",–,–,30,–,–
"COc1cc2c(cc1OC)CN(CCNC(=O)c1ccc(/C=c3\[nH]c(=O)/c(=C/c4ccccc4)n(C)c3=O)cc1)CC2 [Compound 9008, N-(2-(6,7-Dimethoxy-1,2,3,4-tetrahydro-2-isoquinolyl)ethyl)-4-((3Z,6Z)-6-benzylidene-1-methyl-2,5-dioxo-3-piperazinylidene)methylbenzamide]",10,3,–,2,–
"CN(C)CC(O)COc1ccc(/C=c2\[nH]c(=O)/c(=C/c3ccccc3)n(C)c2=O)cc1 (stereo not drawn) [Compound 9023, (3Z,6Z)-6-Benzylidene-3-(4-(3-dimethylamino-2-hydroxypropoxy)benzylidene)-1-methyl-2,5-piperazinedione]",10,–,30,5,–
"Cn1c(=O)/c(=C/c2ccc(C(=O)Nc3ccc(CCN4CCN(c5cccc(C(F)(F)F)c5)CC4)cc3)cc2)[nH]c(=O)/c1=C/c1ccccc1 [Compound 9049, N-(4-(2-(4-(3-Trifluoromethylphenyl)-1-piperazinyl)ethyl)phenyl)-4-((3Z,6Z)-6-benzylidene-1-methyl-2,5-dioxo-3-piperazinylidene)methylbenzamide]",2,–,20,–,Potentiation index [1]: 15
"CN1CCN(C(=O)c2ccc(/C=c3\[nH]c(=O)/c(=C/c4ccccc4)n(C)c3=O)cc2)CC1 [Compound 9052, 1-(4-((3Z,6Z)-6-Benzylidene-1-methyl-2,5-dioxo-3-piperazinylidene)methylbenzoyl)-4-methylpiperazine, hydrochloride]",–,100,–,–,–
"Cn1c(=O)/c(=C/c2ccc(C(=O)NCCN3CCOCC3)cc2)[nH]c(=O)/c1=C/c1ccccc1 [Compound 9053, N-(2-Morpholinoethyl)-4-((3Z,6Z)-6-benzylidene-1-methyl-2,5-dioxo-3-piperazinylidene)methylbenzamide, hydrochloride]",40,50,–,–,–
"Cn1c(=O)/c(=C/c2ccc(C(=O)Nc3ccc(N4CCOCC4)cc3)cc2)[nH]c(=O)/c1=C/c1ccccc1 [Compound 9054, N-(4-Morpholinophenyl)-4-((3Z,6Z)-6-benzylidene-1-methyl-2,5-dioxo-3-piperazinylidene)methylbenzamide, hydrochloride]",50,–,32,30,–
"Cn1c(=O)/c(=C/c2ccc(C(=O)Nc3ccc(CCN4CCc5ccccc5C4)cc3)cc2)[nH]c(=O)/c1=C/c1ccccc1 [Compound 9065, N-(4-(2-(1,2,3,4-Tetrahydro-2-isoquinolyl)ethyl)phenyl)-4-((3Z,6Z)-6-benzylidene-1-methyl-2,5-dioxo-3-piperazinylidene)methylbenzamide]",2,6,–,–,Potentiation index [1]: 15
"C=CCNC(=O)c1ccc(/C=c2\[nH]c(=O)/c(=C/c3ccccc3)n(C)c2=O)cc1 [Compound 9070, N-Allyl-4-((3Z,6Z)-6-benzylidene-1-methyl-2,5-dioxo-3-piperazinylidene)methylbenzamide]",40,5,–,–,–
"CN(CCNC(=O)c1ccc(/C=c2\[nH]c(=O)/c(=C/c3ccccc3)n(C)c2=O)cc1)C(c1ccccc1)c1ccccc1 [Compound 9076, N-(2-Diphenylmethylmethylaminoethyl)-4-((3Z,6Z)-6-benzylidene-1-methyl-2,5-dioxo-3-piperazinylidene)methylbenzamide, hydrochloride]",–,–,44,–,–
"Cn1c(=O)/c(=C/c2ccc(C(=O)Nc3ccc(CCN4CCc5c([nH]c6ccccc56)C4)cc3)cc2)[nH]c(=O)/c1=C/c1ccccc1 [Compound 9080, N-(4-(2-(1,2,3,4-Tetrahydro-β-carbolin-2-yl)ethyl)phenyl)-4-((3Z,6Z)-6-benzylidene-1-methyl-2,5-dioxo-3-piperazinylidene)methylbenzamide]",–,–,–,–,Emax [3]: 18%
"Cn1c(=O)/c(=C/c2cccc(C(=O)Nc3ccc(CCN4CCN(c5ccccc5)CC4)cc3)c2)[nH]c(=O)/c1=C/c1ccccc1 [Compound 9083, N-(4-(2-(4-Phenyl-1-piperazinyl)ethyl)phenyl)-3-((3Z,6Z)-6-benzylidene-1-methyl-2,5-dioxo-3-piperazinylidene)methylbenzamide]",3,2,–,0.1,–
"Cn1c(=O)/c(=C/c2ccc(C(=O)Nc3ccc(CN4CCc5c([nH]c6ccccc56)C4)cc3)cc2)[nH]c(=O)/c1=C/c1ccccc1 [Compound 9096, N-(4-(1,2,3,4-Tetrahydro-β-carbolin-2-yl)methylphenyl)-4-((3Z,6Z)-6-benzylidene-1-methyl-2,5-dioxo-3-piperazinylidene)methylbenzamide]",–,–,–,–,Emax [3]: 20%
"Cn1c(=O)/c(=C/c2ccc(C(=O)Nc3ccc(CCN4CCN(c5ccccc5)CC4)cc3)cc2)[nH]c(=O)/c1=C/c1ccccc1 [Compound 9103, N-(4-(2-(4-Phenyl-1-piperazinyl)ethyl)phenyl)-4-((3Z,6Z)-6-benzylidene-1-methyl-2,5-dioxo-3-piperazinylidene)methylbenzamide]",–,–,20,–,–
"COc1cc2c(cc1OC)CN(CCc1ccc(/C=c3\[nH]c(=O)/c(=C/c4ccccc4)n(C)c3=O)cc1)CC2 [Compound 9115, (3Z,6Z)-6-Benzylidene-3-(4-(2-(6,7-dimethoxy-1,2,3,4-tetrahydro-2-isoquinolyl)ethyl)benzylidene)-1-methyl-2,5-piperazinedione]",60,5,–,2,–
"Cn1c(=O)/c(=C/c2ccc(C(=O)NCCN3CCc4ccccc4C3)cc2)[nH]c(=O)/c1=C/c1ccccc1 [Compound 9116, N-(2-(1,2,3,4-Tetrahydro-2-isoquinolyl)ethyl)-4-((3Z,6Z)-6-benzylidene-1-methyl-2,5-dioxo-3-piperazinylidene)methylbenzamide, hydrochloride]",8,4,–,1,–
"COc1ccc(CCNC(=O)c2ccc(/C=c3\[nH]c(=O)/c(=C/c4ccccc4)n(C)c3=O)cc2)cc1OC [Compound 9117, N-(3,4-Dimethoxyphenethyl)-4-((3Z,6Z)-6-benzylidene-1-methyl-2,5-dioxo-3-piperazinylidene)methylbenzamide]",8,5,–,3,–
"COc1cc2c(cc1OC)CN(Cc1ccc(NC(=O)c3cccc(/C=c4\[nH]c(=O)/c(=C/c5ccccc5)n(C)c4=O)c3)cc1)CC2 [Compound 9128, N-(4-(6,7-Dimethoxy-1,2,3,4-tetrahydro-2-isoquinolyl)methylphenyl)-3-((3Z,6Z)-6-benzylidene-1-methyl-2,5-dioxo-3-piperazinylidene)methylbenzamide]",10,3,–,2,–
COc1ccc(CCN(C)CCNC(=O)c2cccc(/C=c3\[nH]c(=O)/c(=C/c4ccccc4)n(C)c3=O)c2)cc1OC [Compound 9137],12,2,–,4.5,–
"COc1cc2c(cc1OC)CN(CCCc1ccc(NC(=O)c3cccc(/C=c4\[nH]c(=O)/c(=C/c5ccccc5)n(C)c4=O)c3)cc1)CC2 [Compound 9161, N-(4-(3-(6,7-Dimethoxy-1,2,3,4-tetrahydro-2-isoquinolyl)propyl)phenyl)-3-((3Z,6Z)-6-benzylidene-1-methyl-2,5-dioxo-3-piperazinylidene)methylbenzamide,hydrochloride]",–,–,20,–,–
"COc1cc2c(cc1OC)CN(CC1CCN(C(=O)c3ccc(/C=c4\[nH]c(=O)/c(=C/c5ccccc5)n(C)c4=O)cc3)CC1)CC2 [Compound 9200, 1-(4-((3Z,6Z)-6-Benzylidene-1-methyl-2,5-dioxo-3-piperazinylidene)methylbenzoyl)-4-(6,7-dimethoxy-1,2,3,4-tetrahydroisoquinolyl)methylpiperidine]",13,1.7,–,0.8,–
"COc1cccc2c1C(=O)c1c(O)c3c(c(O)c1C2=O)C[C@@](O)(C(=O)CO)C[C@@H]3O[C@H]1C[C@H](N)[C@H](O)[C@H](C)O1 [doxorubicin, reference compound]",–,–,–,–,"Toxicity of doxorubicin alone ([4]; doxorubicin alone, 0.86 μM, AR 1.0 cells): non-toxic"

# Reference: patent US5935955A, “Pharmaceutical piperazine compounds” (Xenova Limited, priority 1994, dated 1999)
